In US7115740B2, “Pyrimido compounds having antiproliferative activity” (Hoffmann-la Roche Inc., priority 2003, dated 2006):

SMILES | melting point
COc1ccc(N2Cc3cnc(Nc4ccccc4)nc3N([C@@H](C)CO)C2=O)cc1 [Example 15d, (S)-(+)-1-(2-hydroxy-1-methyl-ethyl)-3-(4-methoxy-phenyl)-7-phenylamino-3,4-dihydro-1H-pyrimido[4,5-d]pyrimidin-2-one] | 140 to 147 °C
COc1ccc(N2Cc3cnc(Nc4ccccc4)nc3N([C@H](C)CO)C2=O)cc1 [Example 23d, (R)-(−)-1-(2-hydroxy-1-methyl-ethyl)-3-(4-methoxy-phenyl)-7-phenylamino-3,4-dihydro-1H-pyrimido[4,5-d]pyrimidin-2-one] | 156 to 163 °C
COc1ccc(N2Cc3cnc(Nc4ccc(F)cc4)nc3N([C@@H](C)CO)C2=O)c(F)c1 [Example 21b, (S)-(+)-3-(2-fluoro-4-methoxy-phenyl)-7-(4-fluoro-phenylamino)-1-(2-hydroxy-1-methyl-ethyl)-3,4-dihydro-1H-pyrimido[4,5-d]pyrimidin-2-one] | 173 to 177 °C

Next, values leading:

melting point | SMILES
188 to 193 °C | COc1ccc(N2Cc3cnc(Nc4ccccc4)nc3N(C[C@H](C)O)C2=O)cc1 [Example 31d, (S)-(+)-1-(2-hydroxy-propyl)-3-(4-methoxy-phenyl)-7-phenylamino-3,4-dihydro-1H-pyrimido[4,5-d]pyrimidin-2-one]
189 to 193 °C | COc1ccc(N2Cc3cnc(Nc4ccccc4)nc3N(C[C@@H](C)O)C2=O)cc1 [Example 28d, (R)-(−)-1-(2-hydroxy-propyl)-3-(4-methoxy-phenyl)-7-phenylamino-3,4-dihydro-1H-pyrimido[4,5-d]pyrimidin-2-one]
